Laboratory results from the supplement of paper PMC10307832.

Assays:
Experiment in all cases: relative viability (nuclei count vs DMSO), 5 days (fraction); higher = more cells survive
HARA = system: HARA
In short: (§1)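 Lung cancer cell lines in 1536-well plates were dosed by pin tool the day after seeding, either with one drug alone or with a fixed anchor-drug dose plus five library-drug doses (not always all listed) in √10 steps. After 5 days, cells were fixed and their nuclei stained in one step (final 0.05% Triton X-100, 1% formaldehyde, 1 ug/ml Hoechst), then counted on 4× images. Relative viability is the nuclei count in treated wells divided by that in vehicle wells. Values are medians of duplicate plates.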

NCI-H647 = system: NCI-H647
In short: as §1

SW 900 = system: SW 900
In short: as §1

A-427 = system: A-427
In short: as §1

NCI-H1993 = system: NCI-H1993
In short: as §1

EPLC-272H = system: EPLC-272H
In short: as §1

NCI-H1734 = system: NCI-H1734
In short: as §1

NCI-H358 = system: NCI-H358
In short: as §1

NCI-H522 = system: NCI-H522
In short: as §1

LK-2 = system: LK-2
In short: as §1

RERF-LC-KJ = system: RERF-LC-KJ
In short: as §1

NCI-H2405 = system: NCI-H2405
In short: as §1

NCI-H460 = system: NCI-H460
In short: as §1

NCI-H1755 = system: NCI-H1755
In short: as §1

EMC-BAC-2 = system: EMC-BAC-2
In short: as §1

NCI-H1650 = system: NCI-H1650
In short: as §1

COR-L 105 = system: COR-L 105
In short: as §1

HCC-44 = system: HCC-44
In short: as §1

NCI-H596 = system: NCI-H596
In short: as §1

LU99A = system: LU99A
In short: as §1

EKVX = system: EKVX
In short: as §1

ChaGo-K-1 = system: ChaGo-K-1
In short: as §1

`CN1CCN(CCOc2cc(OC3CCOCC3)c3c(Nc4c(Cl)ccc5c4OCO5)ncnc3c2)CC1` [Saracatinib] + O=C(CCCCCCC(=O)Nc1ccccc1)NO [Vorinostat] (partner 1 µM) gave a relative viability (HARA; first compound 0.02 µM) of 0.505, a relative viability (HARA; first compound 0.2 µM) of 0.654 and a relative viability (HARA; first compound 0.6325 µM) of 0.62. For the same compound, the relative viability (HARA; first compound 2 µM) was 0.572, the relative viability (NCI-H647; first compound 0.02 µM) was 0.612 and the relative viability (NCI-H647; first compound 0.2 µM) was 0.499. It also gave a relative viability (NCI-H647; first compound 0.6325 µM) of 0.532, a relative viability (NCI-H647; first compound 2 µM) of 0.45 and a relative viability (SW 900; first compound 0.02 µM) of 0.683. The relative viability (SW 900; first compound 0.2 µM) was 0.407, the relative viability (SW 900; first compound 0.6325 µM) was 0.676 and the relative viability (SW 900; first compound 2 µM) was 0.367. The relative viability (A-427; first compound 0.02 µM) was 0.899, the relative viability (A-427; first compound 0.2 µM) was 0.852 and the relative viability (A-427; first compound 0.6325 µM) was 0.795. It also gave a relative viability (A-427; first compound 2 µM) of 0.863, a relative viability (NCI-H1993; first compound 0.02 µM) of 0.806 and a relative viability (NCI-H1993; first compound 0.2 µM) of 0.651. For the same compound, the relative viability (NCI-H1993; first compound 0.6325 µM) was 0.874, the relative viability (NCI-H1993; first compound 2 µM) was 0.533 and the relative viability (EPLC-272H; first compound 0.02 µM) was 0.306. For the same compound, the relative viability (EPLC-272H; first compound 0.2 µM) was 0.562, the relative viability (EPLC-272H; first compound 0.6325 µM) was 0.63 and the relative viability (EPLC-272H; first compound 2 µM) was 0.424. For the same compound, the relative viability (NCI-H1734; first compound 0.02 µM) was 0.793, the relative viability (NCI-H1734; first compound 0.6325 µM) was 0.837 and the relative viability (NCI-H1734; first compound 2 µM) was 0.652. For the same compound, the relative viability (NCI-H358; first compound 0.02 µM) was 0.645, the relative viability (NCI-H358; first compound 0.2 µM) was 0.442 and the relative viability (NCI-H358; first compound 0.6325 µM) was 0.526. It also gave a relative viability (NCI-H358; first compound 2 µM) of 0.255, a relative viability (NCI-H522; first compound 0.02 µM) of 0.856 and a relative viability (NCI-H522; first compound 0.2 µM) of 0.658. For the same compound, the relative viability (NCI-H522; first compound 0.6325 µM) was 0.897, the relative viability (NCI-H522; first compound 2 µM) was 0.778 and the relative viability (LK-2; first compound 0.02 µM) was 0.353. The relative viability (LK-2; first compound 0.2 µM) was 0.317, the relative viability (LK-2; first compound 0.6325 µM) was 0.224 and the relative viability (LK-2; first compound 2 µM) was 0.234. It also gave a relative viability (RERF-LC-KJ; first compound 0.02 µM) of 0.87, a relative viability (RERF-LC-KJ; first compound 0.2 µM) of 0.729 and a relative viability (RERF-LC-KJ; first compound 0.6325 µM) of 0.753. For the same compound, the relative viability (RERF-LC-KJ; first compound 2 µM) was 0.589, the relative viability (NCI-H2405; first compound 0.02 µM) was 0.89 and the relative viability (NCI-H2405; first compound 0.2 µM) was 0.788. For the same compound, the relative viability (NCI-H2405; first compound 0.6325 µM) was 0.847, the relative viability (NCI-H2405; first compound 2 µM) was 0.441 and the relative viability (NCI-H460; first compound 0.02 µM) was 0.735. For the same compound, the relative viability (NCI-H460; first compound 0.2 µM) was 0.591, the relative viability (NCI-H460; first compound 0.6325 µM) was 0.677 and the relative viability (NCI-H460; first compound 2 µM) was 0.604. For the same compound, the relative viability (NCI-H1755; first compound 0.02 µM) was 0.687, the relative viability (NCI-H1755; first compound 0.2 µM) was 0.539 and the relative viability (NCI-H1755; first compound 0.6325 µM) was 0.861. The relative viability (NCI-H1755; first compound 2 µM) was 0.707, the relative viability (EMC-BAC-2; first compound 0.02 µM) was 0.417 and the relative viability (EMC-BAC-2; first compound 0.2 µM) was 0.43. For the same compound, the relative viability (EMC-BAC-2; first compound 0.6325 µM) was 0.417, the relative viability (EMC-BAC-2; first compound 2 µM) was 0.291 and the relative viability (NCI-H1650; first compound 0.02 µM) was 0.654. The relative viability (NCI-H1650; first compound 0.2 µM) was 0.377, the relative viability (NCI-H1650; first compound 0.6325 µM) was 0.548 and the relative viability (NCI-H1650; first compound 2 µM) was 0.492. It also gave a relative viability (COR-L 105; first compound 0.02 µM) of 0.879, a relative viability (COR-L 105; first compound 0.2 µM) of 0.668 and a relative viability (COR-L 105; first compound 0.6325 µM) of 0.819. It also gave a relative viability (COR-L 105; first compound 2 µM) of 0.625, a relative viability (HCC-44; first compound 0.02 µM) of 1.14 and a relative viability (HCC-44; first compound 0.2 µM) of 1.14. The relative viability (HCC-44; first compound 0.6325 µM) was 1, the relative viability (HCC-44; first compound 2 µM) was 1.19 and the relative viability (NCI-H596; first compound 0.02 µM) was 0.568. It also gave a relative viability (NCI-H596; first compound 0.2 µM) of 0.511, a relative viability (NCI-H596; first compound 0.6325 µM) of 0.585 and a relative viability (NCI-H596; first compound 2 µM) of 0.406. For the same compound, the relative viability (LU99A; first compound 0.02 µM) was 0.445, the relative viability (LU99A; first compound 0.2 µM) was 0.339 and the relative viability (LU99A; first compound 0.6325 µM) was 0.418. It also gave a relative viability (LU99A; first compound 2 µM) of 0.404, a relative viability (EKVX; first compound 0.02 µM) of 0.762 and a relative viability (EKVX; first compound 0.2 µM) of 0.474. The relative viability (EKVX; first compound 0.6325 µM) was 0.817, the relative viability (EKVX; first compound 2 µM) was 0.494 and the relative viability (ChaGo-K-1; first compound 0.02 µM) was 0.797. For the same compound, the relative viability (ChaGo-K-1; first compound 0.2 µM) was 0.55, the relative viability (ChaGo-K-1; first compound 0.6325 µM) was 0.785 and the relative viability (ChaGo-K-1; first compound 2 µM) was 0.65.
